This note sets out measurements from patent publication US4401822A, “Derivatives of 4-amino-5-alkyl sulphonyl orthoanisamides” (Societe de'Etudes Scientifiques et Industrielles de …, priority 1978, dated 1983).

“Also recorded” adds a separate entry of the source. Where a name gives a salt, the structure may show the parent alone. Read-outs that look alike come from different tables or passages of the source.

The test system of data set [1] is serotonin. Briefly: antiserotonin action in connection with stomach ulceration in the rat. The format is in vivo. Conditions: sc. The procedure: The antiserotonin action in connection with stomach ulceration has been studied in the rat under the following conditions:
30 mg/kg of serotonin is administered subcutaneously to female rats in two stages, with an interval of 16 hours. The product being studied is administered subcutaneously at the same time as the serotonin, in two stages with increasing doses. A group of 30 animals is used for each dose and a group of 60 animals is used as the control. The animals are sacrificed 22 hours after the first injection of serotonin, and their stomachs are taken out and examined. The percentage protection for each dose studied is determined, then the DE50, the dose protecting 50% of the animals, from gastric ulceration, is measured graphically.

The next data set has as its system apomorphine. The data set is described as follows: antiemetic power relative to apomorphine, dogs, method of Chen and Ensor. It counts as in vivo, dog. Particulars: s.c. 30 minutes before apomorphine 100 μg/kg s.c.; for ED50: Canis lupus familiaris, sc, read-out: Antiapomorphine ED50 in the dog. The procedure: The compounds of the invention have undergone other pharmacodynamic tests, and in particular their antiemetic power relative to apomorphine has been measured.
The test has been carried out on dogs by the method of Chen and Ensor.
The compounds of the invention are administered subcutaneously, 30 minutes before the apomorphine, which is administered subcutaneously in a dose of 100 μg/kg.

Data set [2] concerns serotonin. The data set is described as follows: antiserotonin action in respect of bronchospasm in the guinea-pig, method of Konzett and Rossler. Conditions: serotonin 20 μg/kg intravenously, anaesthetised guinea-pigs. It counts as in vivo. The procedure:
The antiserotonin action in respect of bronchospasm has been studied in the guinea-pig under the following conditions:
The bronchospasm is recorded by the method of Konzett and Rossler, which comprises connecting the trachea of the guinea-pig to an artificial respiration pump, which passes a constant volume of air, slightly greater than the respiratory capacity of the animal, into the bronchi at a physiological rhythm. The excess quantity of air, which varies according to the diameter of the bronchi, is discharged to a special manometric device which measures the volume of air at each inhalation.
The serotonin is administered intravenously to the guinea-pigs in a dose of 20 μg/kg. The guinea-pigs have previously been anaesthetised with ethyl carbamate, thus producing a bronchial spasm.
The product to be studied is then administered intravenously, after which the administration of serotonin is repeated one minute later. The percentage inhibition of bronchospasm is measured for each dose of the product to be studied, then the antiserotonin DE50 relative to bronchospasm in the guinea-pig is determined.

Data set [3] is described as follows: acute toxicity in mice (LD50). It counts as in vivo. Particulars: mouse, in vivo, male mouse. The source says: (§1) The acute toxicity of the compounds according to the invention has been studied in mice. The lethal doses 50 are set out in the table which follows:
(§2) LD50 DETERMINED IN THE MALE MOUSE -

The next data set relates to male mouse. Briefly: acute toxicity in mice (LD50). It counts as in vivo.
Excerpt: as §1, §2

In another data set the test system is male rats. The data set is described as follows: cataleptic action in male rats, subcutaneous. The format is in vivo, rat. Particulars: 200 mg/kg subcutaneously, after 7 hours. The procedure: The cataleptic action has been studied as follows.
Benzamides are administered subcutaneously to male rats. The criterion taken for the cataleptic state is that the animal should be immobile for 30 seconds with its rear limbs apart, arranged carefully on wooden cubes 4 cm high, which thus puts the animal in an unaccustomed and uncomfortable position.
The cataleptic action is measured when the effect is at its maximum, i.e. 5 to 7 hours after the substance has been administered.

For data set [4], the system named is patients suffering from migraine. The data set is described as follows: clinical treatment of migraine. It counts as in vivo. Particulars: single patients, 100-300 mg per day. As to the method:
Compound (1) was administered in a dose of three tablets per day (300 mg) to a patient suffering from frequent migraines; these obliged hereto interrupt any professional activity for three or four days per month.
Compound (1) was administered in a daily dose of 300 mg taken in three portions, to two twin brothers who suffered each month from attacks of migraine accompanied by vomiting.
Compound (2) was administered continuously, in doses of two tablets per day (200 mg), to a person who had suffered from attacks of migraine for four years. The attacks had not responded to curative treatment (ergotamine and caffeine) or preventive treatment.
Compound (2) was administered in doses of three tablets per day (300 mg) to a person suffering from quasi permanent occipital cephalalgia and several times a week from attacks of migraine with right hemicrania, photophobia and nausea.

Data set [5] deals with patients suffering from catatonic hebephrenia. Briefly: clinical treatment of catatonic hebephrenia. The format is in vivo. Conditions: 100-300 mg daily oral or intramuscular, of 21 patients. The procedure: 21 patients suffering from catatonic hebephrenia were treated with compound (1), a daily dose of 100-300 mg being given orally or by intramuscular injection. In 13 cases removal of inhibitions was observed, sometimes with a reversal of mood, which made it possible to make contact with the patient.

For data set [6], the system named is alcoholic or heroin addicts. The format is in vivo. Particulars: 200 mg per day oral or intramuscular, of 30 patients. The procedure: Thus for example, 200 mg per day of compound (1) was administered orally or by intramuscular injection to 30 patients who were alcoholic or heroin addicts. In 28 cases the product acted rapidly and the drug addicts asked for more. Its effect is different from that of opiates and the main antalgics.

The subject of data set [7] is patients suffering from sudden attacks of delirium. Briefly: clinical treatment of sudden attacks of delirium. It counts as in vivo. Conditions: 350 mg per day oral or intramuscular. The procedure:
41 patients suffering from sudden attacks of delirium were treated with 350 mg per day of compound (2), administered orally or by intramuscular injection.

Setting [8] is: Rattus norvegicus, 22 h, female rats, serotonin 30 mg/kg s.c. in two stages, dose protecting 50% of the animals, read-out: Antiserotonin ED50 in respect of stomach ulceration, in the rat.

With `CCN1CCCC1CNC(=O)c1cc(S(=O)(=O)CC)c(N)cc1OC` (single isomer, unassigned) [Compound 4, Dextrorotatory tartrate of N-[1-ethyl 2-pyrrolidylmethyl]2-methoxy 4-amino 5-ethylsulphonyl benzamide], in the data set on serotonin [1] (setting [8]), the ED50 is 0.46 mg/kg. Further, in the data set with apomorphine, the “Antiapomorphine ED50 in the dog” value worked out at 12 μg/kg/s.c. In addition, the “Antiserotonin ED50 relative to bronchospasm in the guinea-pig” value in the data set with serotonin [2] is on record as 106 μg/kg/IV. In addition, the 50% lethal dose (LD50) – broadly, the dose expected to kill half of the subjects tested – was 188 mg/kg in data set [3] (ip, I.P.); 39.8 mg/kg in data set [3] (iv); 1560 to 1620 mg/kg in data set [3] (po); 254 to 263 mg/kg in [3] (sc, subcutaneous).
Consider `CCN1CCCC1CNC(=O)c1cc(S(=O)(=O)CC)c(N)cc1OC` (single isomer, unassigned) [Compound 5, Levorotatory tartrate of N-[1-ethyl 2-pyrrolidylmethyl]2-methoxy 4-amino 5-ethylsulphonyl benzamide], for which the “Antiapomorphine ED50 in the dog” value in the data set with apomorphine is recorded as 0.28 μg/kg/s.c. Also, the median lethal dose (LD50) was 122 to 128 mg/kg in the data set on male mouse (I.P.), 44.8 mg/kg in the data set on male mouse (intravenous), 1109 to 1160 mg/kg in the data set on male mouse (oral) and 137 to 149 mg/kg in the data set on male mouse (subcutaneous). Further, the “cataleptic state, % of the animals” value in the data set with male rats is recorded as 30%.
As for `CCS(=O)(=O)c1cc(C(=O)NCC2CCCN2C)c(OC)cc1N` (single isomer, unassigned) [Compound 6, Dextrorotatory N-1-methyl 2-pyrrolidylmethyl 2-methoxy 4-amino 5-ethylsulphonyl benzamide], the ED50 was 0.34 to 0.44 mg/kg in the data set on serotonin [1] (setting [8]) and 0.008 mg/kg with apomorphine. In addition, the LD50 in data set [3] (ip, I.P.) was in the range of 304 to 322 mg/kg; in [3] (iv), 62 to 64 mg/kg; in [3] (po) it was 1190 to 1260 mg/kg; in data set [3] (sc, subcutaneous), 380 to 396 mg/kg.
With `CCN1CCCC1CNC(=O)c1cc(S(=O)(=O)CC)c(N)cc1OC` (stereo not drawn) [Compound 1, N-(1-ethyl 2-pyrrolidylmethyl) 2-methoxy 4-amino 5-ethylsulphonyl benzamide], the figures for the ED50 in the data set with serotonin [1] (setting [8]) and in the data set on apomorphine were 1 mg/kg and 0.00029 mg/kg, respectively. Further, in data set [4], the “effect on migraine (in words)” value was “The migraines decreased from the first month and disappeared altogether from the second month; also recorded: For one of the twins the migraine disappeared immediately; also recorded: For the other the pain disappeared from the second method and only a few attacks of nausea persisted”. Further, the “cases with removal of inhibitions” value in data set [5] is 13 cases. Also, the “Antiserotonin ED50 relative to bronchospasm in the guinea-pig” value with serotonin [2] was 74 μg/kg/IV. The median lethal dose (LD50) in data set [3] (ip, I.P.) was 175 to 180 mg/kg; in data set [3] (iv), 56 to 60 mg/kg; in data set [3] (po), 1020 to 1050 mg/kg; in data set [3] (sc, subcutaneous) it was 224 to 250 mg/kg. Further, the “cases in which the product acted rapidly” value in data set [6] was 28 cases.
Consider `CCS(=O)(=O)c1cc(C(=O)NCC2CCCN2C)c(OC)cc1N` (stereo not drawn) [Compound 2, N-[1-methyl 2-pyrrolidylmethyl]2-methoxy 4-amino 5-ethylsulphonyl benzamide], for which the ED50 was 0.4 mg/kg in the data set on serotonin [1] (setting [8]) and 0.0008 mg/kg with apomorphine. For the same compound, in [7] (41 patients), the antidepressive action entry was “there was an antidepressive action”. For the same compound, the tolerance result in [7] (41 patients, all cases) was “excellent tolerance in all cases”. The “cases with a very good antipsychotic action in sudden attacks of delirium” value in data set [7] (of 41 patients) was 38 cases. The “effect on migraine (in words)” value in data set [4] is “their intensity is decreasing; also recorded: From the third week the migraine attacks disappeared completely”. Further, the median lethal dose (LD50) is 210 to 217 mg/kg in [3] (ip, I.P.); 56 to 57 mg/kg in data set [3] (iv); 1330 mg/kg in data set [3] (po); 280 mg/kg in data set [3] (sc, subcutaneous).
Take `C=CCN1CCCC1CNC(=O)c1cc(S(=O)(=O)CC)c(N)cc1OC` (stereo not drawn) [Compound 3, N-[1-allyl 2-pyrrolidylmethyl]2-methoxy 4-amino 5-ethylsulphonyl benzamide]: the ED50 in the data set on serotonin [1] (setting [8]) came to 0.65 mg/kg; in the data set with apomorphine, 0.00065 mg/kg. Moreover, the LD50 fell in the range of 216 to 217 mg/kg in [3] (ip, I.P.); 106 to 107 mg/kg in data set [3] (iv); 2230 to 2380 mg/kg in data set [3] (po); 312 to 330 mg/kg in data set [3] (sc, subcutaneous).
Consider `CCCS(=O)(=O)c1cc(C(=O)NCC2CCCN2CC)c(OC)cc1N` (stereo not drawn) [Compound 7, N(1ethyl 2pyrrolidylmethyl) 2methoxy 4amino 5propylsulphonyl benzamide], for which the ED50 in the data set on serotonin [1] (setting [8]) was found to be 3.2 mg/kg; with apomorphine, 0.0016 mg/kg. The LD50 in [3] (ip, I.P.) lay within 160 to 165 mg/kg; in data set [3] (iv) it was 43 to 46.8 mg/kg; in data set [3] (po), 570 to 629 mg/kg; in [3] (sc, subcutaneous), 140 to 144 mg/kg.
Consider `CCN1CCCC1CNC(=O)c1cc(S(C)(=O)=O)c(N)cc1OC` (stereo not drawn) [Compound 8, N-[1-ethyl 2-pyrrolidylmethyl]2-methoxy 4-amino 5-methylsulphonyl benzamide], for which the ED50 in the data set on serotonin [1] (setting [8]) was determined as 3 mg/kg; in the data set with apomorphine, 0.0027 mg/kg. The median lethal dose (LD50) in data set [3] (ip, I.P.) lay within 234 to 238 mg/kg; in [3] (iv), 46.5 to 50 mg/kg; in data set [3] (po), 625 to 660 mg/kg; in [3] (sc, subcutaneous), 208 to 225 mg/kg.
For the compound `COc1cc(N)c(S(C)(=O)=O)cc1C(=O)NCC1CCCN1C` (stereo not drawn) [Compound 9, N-[1-methyl 2-pyrrolidylmethyl]2-methoxy 4-amino 5-methylsulphonyl benzamide], the ED50 stood at 1.14 mg/kg in the data set with serotonin [1] (setting [8]) and 0.007 mg/kg in the data set with apomorphine. For the same compound, the median lethal dose (LD50) was 200 to 216 mg/kg in data set [3] (ip, I.P.); 54 mg/kg in data set [3] (iv); 202 mg/kg in data set [3] (sc, subcutaneous).
Regarding `CCN1CCCC1CNC(=O)c1cc(S(N)(=O)=O)ccc1OC` (stereo not drawn) [sulpiride, reference compound], the ED50 with serotonin [1] (rat, comparator value in text, read-out: antiserotonin ED50 relative to stomach ulceration in the rat (comparator, text)) turned out to be 110 mg/kg.
